Values after ≈ are worked out from the molar mass of the structure shown. Read-outs that look alike come from different tables or passages of the source.
Key:
[1] = test system: Reovirus-1; test: Antiviral activity in Vero cell cultures; type: cell-based; settings: Vero cells
[2] = test system: Coxsackie Virus B4; test: Antiviral activity in Vero cell cultures; type: cell-based; settings: Enterovirus B, B4, Vero cells
[3] = test system: Bacillus subtilis ATCC 6633; test: Antimicrobial susceptibility assay in vitro (MIC determination); type: cell-based; settings: ATCC6633, serial microdilution, 18 h, 35 °C
Description: (§1) Stock solutions of the tested compounds were prepared in DMSO (10 mg/mL). […] The absorbance was recorded at 540 nm. As a positive quality control (susceptibility of strains) tetracycline hydrochloride (TC) (Sigma-Aldrich) was added into wells.

[4] = test system: Streptococcus pneumoniae MFBF 10373; test: as above; type: cell-based; settings: MFBF10373, serial microdilution, 18 h, 35 °C
Description: as §1

[5] = test system: Bacillus cereus ATCC 11778; test: as above; type: cell-based; settings: ATCC11778, serial microdilution, 18 h, 35 °C
Description: as §1

[6] = test system: Acinetobacter baumannii MFBF 10913; test: as above; type: cell-based; settings: MFBF10913, serial microdilution, 18 h, 35 °C
Description: as §1

[7] = test system: Streptococcus pneumonia MFBF 10373; test: Minimum biofilm eradication assay; type: cell-based, Streptococcus pneumoniae
Description: MBECs of fumardiamides 4a–f and succindiamides 5a–f were determined as follows. Each well (96-well plate) was filled with 100 µl of bacterial (10^7 CFU/mL) or yeast (5 × 10^6 CFU/mL) suspension. When the inhibition of yeast biofilm formation was tested, the wells were pre-treated with fetal bovine serum (FBS) (250 µl per well). Negative controls contained broth only. Positive controls were performed using standard antimicrobial drugs gentamycin (Gen) and Amph, respectively. […] Following incubation period, each well was aspirated, washed three times and vigorously shaken to remove all non-adherent bacteria/yeast. The remaining attached cells were fixed with methanol (15 min) and the plates were left to dry overnight. Formed biofilm was stained with crystal violet (1%, 5 min). Excess stain was rinsed by placing the plate under running tap water and the plates were left to dry. Adherent cells were solubilized using ethanol. The absorbance was read at 570 nm. The MBEC value represents the lowest dilution of a compound at which bacteria fail to grow.

[8] = test system: Mycobacterium marinum CAMP 5644; test: Antimycobacterial susceptibility assay (MIC determination); type: cell-based; settings: CAMP5644, 504 h
Description: The broth dilution micro-method in Middlebrook 7H9 medium (Difco, Lawrence, KS, USA) supplemented with ADC Enrichment (Becton, Dickinson and Comp.) was used to determine MIC as previously described. […] Bacterial inocula were prepared by transferring colonies from culture to sterile water. The cell density was adjusted to 0.5 McFarland units using a densitometer (Densi-La-Meter, LIAP, Riga, Latvia). The final inoculum was made by 1:1000 dilution of the suspension with sterile water. Drug-free controls, sterility controls and controls consisted of medium and DMSO (Sigma-Aldrich, St. Louis, MO, USA) alone were included. […] Ciprofloxacin (CIP), rifampicin (RIF) and isoniazid (INH) (Sigma-Aldrich, St. Louis, MO, USA) were used as the standards.

[9] = test system: Staphylococcus aureus ATCC 6538; test: Antimicrobial susceptibility assay in vitro (MIC determination); type: cell-based; settings: ATCC6538
[10] = test system: Yellow Fever Virus; test: microbe, parasite or virus in culture; type: cell-based; settings: Vero
[11] = test system: Sindbis Virus; test: microbe, parasite or virus in culture; type: cell-based; settings: Vero
[12] = test system: Mycobacterium tuberculosis H37Ra; test: Antimycobacterial susceptibility assay (MIC determination); type: cell-based; settings: 168 h, 7 days, 37 °C, alamarBlue
Description: At log phase growth, a culture sample (10 mL) was centrifuged at 15,000 rpm/20 min using a bench-top centrifuge (MPW-65R, MPW Med Instruments, Poland). Following removal of the supernatant, the pellet was washed in fresh Middlebrook 7H9GC broth and re-suspended in fresh, ODAC-supplemented MB (10 mL). The turbidity was adjusted to match McFarland standard No. 1 (3 × 10^8 CFU) with MB broth. A further 1:20 dilution of the culture was then performed in MB broth. The antimicrobial susceptibility of M. tuberculosis was investigated in a 96-well plate format. In these experiments, sterile deionised water (300 µl) was added to all outer-perimeter wells of the plates to minimize evaporation of the medium in the test wells during incubation. Each evaluated compound (100 µL) was incubated with M. tuberculosis (100 µl). Dilutions of each compound were prepared in duplicate. For all synthesized compounds, final concentrations ranged from 1000 μg/mL to 8 μg/mL. All compounds were dissolved in DMSO, and subsequent dilutions were made in supplemented MB. […] Following incubation, 10% of alamarBlue (Difco, Lawrence, KS, USA) was mixed into each well, and readings at 570 nm and 600 nm were taken, initially for background subtraction and subsequently after 24 h reincubation. […] For non-interfering compounds, a blue colour in the well was interpreted as the absence of growth, and a pink colour was scored as growth.

[13] = test system: Enterococcus faecalis ATCC 29212; test: Antimicrobial susceptibility assay in vitro (MIC determination); type: cell-based
[14] = MTS, read-out: EC50 Reovirus-1, MTS
[15] = MTS, read-out: EC50 Coxsackie Virus B4, MTS
[16] = Mycobacterium marinum CAMP 5644, 21 days, 28 °C, read-out: MIC
[17] = read-out: EC50 Yellow Fever Virus, MTS
[18] = read-out: EC50 Sindbis Virus, MTS
[19] = Enterococcus faecalis, ATCC29212, 24 h
[20] = ATCC29212, Enterococcus faecalis ATCC 29212, broth dilution, 24 h, 37 °C, read-out: MIC
[21] = visual CPE score, read-out: EC50 Reovirus-1, Visual CPE Score
[22] = visual CPE score, read-out: EC50 Coxsackie Virus B4, Visual CPE Score
[23] = read-out: EC50 Yellow Fever Virus, Visual CPE Score
[24] = read-out: EC50 Sindbis Virus, Visual CPE Score

| SMILES | EC50 [1, 14] [µM] | EC50 [2, 15] [µM] | MIC [3] [µg/mL] | MIC [4] [µg/mL] | MIC [5] [µg/mL] | MIC [6] [µg/mL] | MBEC [7] [µg/mL] | MIC [8, 16] [µg/mL] | MIC [9] [µg/mL] | EC50 [10, 17] [µM] | melting point [°C] | EC50 [11, 18] [µM] | MIC [12] [µg/mL] | MIC [13, 19] [µg/mL] | MIC [13, 20] [µg/mL] | EC50 [1, 21] [µM] | EC50 [2, 22] [µM] | MIC ([8]; Mycobacterium marinum) [µg/mL] | EC50 [10, 23] [µM] | EC50 [11, 24] [µM] |
| --- | --- | --- | --- | --- | --- | --- | --- | --- | --- | --- | --- | --- | --- | --- | --- | --- | --- | --- | --- | --- |
| COc1cc(NC(C)CCCNC(=O)/C=C/C(=O)Nc2cccc(F)c2)c2ncccc2c1 (centres unmarked) [Compound 4a, (2E)-N-(3-Fluorophenyl)-N′-{4-[(6-methoxyquinolin-8-yl)amino]pentyl}but-2-enediamide] | > 50 | > 50 | 50 (≈ 111 µM) | > 100 | > 100 | > 100 | 12.5 | > 256 | > 100 | > 50 | 203 to 204 | > 50 | 128 (≈ 284 µM) | 128 (≈ 284 µM) | – | – | – | – | – | – |
| COc1cc(NC(C)CCCNC(=O)/C=C/C(=O)Nc2ccc(F)cc2)c2ncccc2c1 (centres unmarked) [Compound 4b, (2E)-N-(4-Fluorophenyl)-N′-{4-[(6-methoxyquinolin-8-yl)amino]pentyl}but-2-enediamide] | > 50 | > 50 | 25 (≈ 55.5 µM) | 12.5 (≈ 27.7 µM) | 25 (≈ 55.5 µM) | 25 (≈ 55.5 µM) | 25 | 64 (≈ 142 µM) | 12.5 (≈ 27.7 µM) | > 50 | 226 to 227 | > 50 | 32 (≈ 71 µM) | – | 64 (≈ 142 µM) | – | – | – | – | – |
| COc1cc(NC(C)CCCNC(=O)/C=C/C(=O)Nc2cccc(Cl)c2)c2ncccc2c1 (centres unmarked) [Compound 4c, (2E)-N-(3-Chlorophenyl)-N′-{4-[(6-methoxyquinolin-8-yl)amino]pentyl}but-2-enediamide] | 3.8 | > 50 | 50 (≈ 107 µM) | 25 (≈ 53.5 µM) | 25 (≈ 53.5 µM) | 25 (≈ 53.5 µM) | 100 | – | 12.5 (≈ 26.8 µM) | > 50 | 187 to 188 | 3 | 128 (≈ 274 µM) | – | 256 (≈ 548 µM) | > 50 | > 50 | 128 (≈ 274 µM) | > 50 | > 50 |
| COc1cc(NC(C)CCCNC(=O)/C=C/C(=O)Nc2ccc(Cl)cc2)c2ncccc2c1 (centres unmarked) [Compound 4d, (2E)-N-(4-Chlorophenyl)-N′-{4-[(6-methoxyquinolin-8-yl)amino]pentyl}but-2-enediamide] | > 50 | > 50 | > 100 | 12.5 (≈ 26.8 µM) | > 100 | 12.5 (≈ 26.8 µM) | 50 | 64 (≈ 137 µM) | 6.1 (≈ 13.1 µM) | > 50 | 223 to 226 | > 50 | 128 (≈ 274 µM) | – | 64 (≈ 137 µM) | – | – | – | – | – |
| COc1cc(NC(C)CCCNC(=O)/C=C/C(=O)Nc2cccc(C(F)(F)F)c2)c2ncccc2c1 (centres unmarked) [Compound 4e, (2E)-N′-{4-[(6-Methoxyquinolin-8-yl)amino]pentyl}-N-[3-(trifluoromethyl)phenyl]but-2-enediamide] | 3.1 | 3.1 | > 100 | 50 (≈ 99.9 µM) | > 100 | 25 (≈ 49.9 µM) | 50 | 256 (≈ 511 µM) | 50 (≈ 99.9 µM) | > 50 | 149 to 150 | 5.3 | 128 (≈ 256 µM) | 128 (≈ 256 µM) | – | > 50 | 2.7 | – | > 50 | 4.2 |
| COc1cc(NC(C)CCCNC(=O)/C=C/C(=O)Nc2ccc(C(F)(F)F)cc2)c2ncccc2c1 (centres unmarked) [Compound 4f, (2E)-N′-{4-[(6-Methoxyquinolin-8-yl)amino]pentyl}-N-[4-(trifluoromethyl)phenyl]but-2-enediamide] | > 50 | > 50 | > 100 | 50 (≈ 99.9 µM) | > 100 | 25 (≈ 49.9 µM) | 50 | 64 (≈ 128 µM) | 50 (≈ 99.9 µM) | > 50 | 189 to 191 | > 50 | 64 (≈ 128 µM) | – | 64 (≈ 128 µM) | – | – | – | – | – |

From PMC6100582 (Molecules : A Journal of Synthetic Chemistry and Natural …, 2018)
